Laboratory results as given in patent US11976058B2, “Aromatic derivatives, preparation methods, and medical uses thereof” (Bioardis LLC, priority 2019, dated 2024).
pIC50: −log10 of the molar value. Where two headings read alike, the source gives them in different places.

Key:
human FGFR4 = target: T1, human FGFR4 (Homo sapiens, UniProt P22455); assay: FGFR4 enzymatic assay (HTRF KinEASE-TK); format: biochemical; conditions: wild-type human FGFR4 cytoplasmic domain (460-802), GST-tag; 60 min preincubation at 25° C.; ATP 200 μM; read-out: Potency (IC50), FGFR4 enzymatic assay
T1 construct: human FGFR4 cytoplasmic domain (460-802); GST (N); purchased Carna Biosciences 08-136
Summary of the method: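 GST-tagged FGFR4 cytoplasmic domain (460-802) at 0.25 μg/ml, preincubated with compound 60 min at 25 °C in HEPES pH 7.0 buffer, then reacted 40 min at 37 °C with 0.3 μM biotin-TK peptide and 200 μM ATP. HTRF detection (665/612 nm) after 60 min; IC50 by four-parameter logistic fit.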

Hep3B cells = assay: Cell-based FGFR4 proliferation assay (CellTiter-Glo); conditions: incubated with test compound for 3 days, CellTiter-Glo luminescence, read-out: Potency (IC50), Hep3B cell proliferation
Protocol: Hepatocellular carcinoma cell line Hep3B (ATCC, Cat #HB-8064) were cultured at 37° C., 5% CO2 in ATCC-formulated Eagle's Minimum Essential Medium supplemented with 10% fetal bovine serum; 1% Penicillin-Streptomycin.
(§1) Cell line: Hepatocellular carcinoma cell line Hep3B (ATCC, Cat #HB-8064).
In this assay, Hep3B cells are seeded in 384-well microplates, and after exposure to experimental compounds for […], CellTiter-Glo® Luminescent Cell Viability Assay kit (Promega, Cat #G7572) are used to determine the number of viable cells in the culture based on quantitation of the ATP present, which signals the presence of metabolically active cells. Luminescent signal is proportional to the amount of ATP present. The amount of ATP is directly proportional to the number of cells present in the culture, allowing drug-induced effects on cell proliferation to be measured.
Hep3B cells were plated at a density of 4×10^4/ml cells in a 384-well black/clear microplate with 20 μL per well of MEM Medium (Gibco Cat. #11095-080) supplemented with 10% fetal bovine serum; 1% Penicillin-Streptomycin, and cultured overnight at 37° C., 5% CO2. Various concentrations of the test compound (dissolved in 100% DMSO) were added to the wells of the cell plate. The cells were incubated with the test compound for 3 days at 37° C., 5% CO2. 5 μL of CellTiter-Glo® Reagent was added to each well of the cell plate. The cell plate was incubated for 5 min at 25° C. on a plate shaker (IKA MTS 2/4) at 300 rpm. Luminescence signals were read on a TECAN Spark 10M instrument (TECAN). […] The concentrations and percent inhibition values for a test compound were plotted and the concentration of the compound required to achieve 50% inhibition (IC50) is determined with a four-parameter logistic dose response equation. Dose-response curves were generated using Prism (GraphPad Software, La Jolla, CA, US) to calculate IC50 values for each compound tested.

[1] = test system: MAPK phosphorylation in Hep3B cells stimulated with FGF19; assay: FGFR4 pMAPK AlphaLISA SureFire Ultra assay; format: cell-based; conditions: serum-starved, compound 1 hour, FGF19 100 ng/ml for 4 hours, read-out: Potency (IC50), FGFR4 pMAPK AlphaLISA
Excerpt: as §1
In normal liver, circulating FGF19 drives liver cell proliferation and regulates bile acid production. However aberrant expression of FGF19 in the liver drives HCC tumorigenesis, upregulates MAPK phosphorylation in FGF19-amplified malignant liver cells. AlphaScreen SureFire technology allows the detection of phosphorylated proteins in cellular lysates in a highly sensitive, quantitative assay. In these assays, sandwich antibody complexes, which are only formed in the presence of analyte, are captured by AlphaScreen Donor and Acceptor beads, bringing them into close proximity. The excitation of the Donor bead provokes the release of singlet oxygen molecules that triggers a cascade of energy transfer in the Acceptor beads, resulting in the emission of light at 520-620 nm.
Hep3B cells were plated at a density of 1×10^4/ml cells in a 96-well plate (Corning #3599), with 100 uL per well of MEM Medium (Gibco Cat #11095-080) supplemented with 10% fetal bovine serum; 1% Penicillin-Streptomycin, and cultured overnight at 37° C., 5% CO2. Starve Hep3B cells in serum-free medium (SFM) supplemented with 0.2% BSA and incubate the cells again overnight at 37° C., 5% CO2. Various concentrations of the test compound (prepared in 2x SFM) were added to the wells of the cell plate and then incubated for 1 hour at 37° C., 5% CO2. 50 μL of FGF19 in SFM was added to each well of the cell plate with a final FGF19 concentration of 100 ng/ml, and cells treated with FGF19 were stimulated for 4 hours at 37° C., 5% CO2. 5 μL of freshly prepared Donor Mix and Acceptor Mix were sequentially added to the cell plate, each followed with 1 hour of incubation at 25° C., 5% CO2. Read the cell plate on an Alpha Technology-compatible plate reader at 570 nm AlphaScreen, using standard AlphaLISA settings. The percent (%) inhibition=((ZPE−Alpha-Signal)/(ZPE−HPE))*100% where the meanings of HPE and ZPE are as provided below.
HPE: Hundred Percent Effect, negative control well without FGF19 nor compound. Final concentration of DMSO is 0.1%.
ZPE: Zero Percent Effect, positive control well without compound. Final concentration of FGF19 is 100 ng/mL, DMSO is 0.1%.
The concentrations and percent inhibition values for a test compound were plotted and the concentration of the compound required to achieve 50% inhibition (IC50) was determined with a four-parameter logistic dose response equation. Dose-response curves were generated using Prism (GraphPad Software, La Jolla, CA, US) to calculate IC50 values for each compound tested.

T1 sequence (P22455 460-802): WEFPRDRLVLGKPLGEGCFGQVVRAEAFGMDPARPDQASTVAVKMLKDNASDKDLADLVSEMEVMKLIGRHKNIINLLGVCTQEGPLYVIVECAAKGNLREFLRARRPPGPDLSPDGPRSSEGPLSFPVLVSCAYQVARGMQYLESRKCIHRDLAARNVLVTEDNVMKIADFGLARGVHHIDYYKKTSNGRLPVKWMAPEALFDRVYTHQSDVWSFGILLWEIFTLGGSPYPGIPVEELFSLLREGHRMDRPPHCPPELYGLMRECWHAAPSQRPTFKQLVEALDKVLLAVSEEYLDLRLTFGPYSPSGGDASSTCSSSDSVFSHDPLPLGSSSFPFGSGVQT

Structure (SMILES)	pIC50 (human FGFR4)	pIC50 (Hep3B cells; Homo sapiens, Hep3B, 72 h)	pIC50 ([1]; Homo sapiens, Hep3B)	pIC50 (Hep3B cells)	pIC50 [1]
[2H]C([2H])([2H])n1ncc(NC(=O)C=C)c1-c1n[nH]c2c1CCC(c1cc(OC)cc(OC)c1F)C2 (single isomer, unassigned) [Compound S16-P3, N-(5-(6-(2-fluoro-3,5-dimethoxyphenyl)-4,5,6,7-tetrahydro-1H-indazol-3-yl)-1-(methyl-d3)-1H-pyrazol-4-yl)acrylamide]	7.00 to 8.00	< 7.00	7.00 to 8.00		
[2H]C([2H])([2H])n1ncc(NC(=O)C=C)c1-c1n[nH]c2c1CCC(c1cc(OC)cc(OC)c1F)C2 (single isomer, unassigned) [Compound S16-P4, N-(5-(6-(2-fluoro-3,5-dimethoxyphenyl)-4,5,6,7-tetrahydro-1H-indazol-3-yl)-1-(methyl-d3)-1H-pyrazol-4-yl)acrylamide]	7.00 to 8.00			< 7.00	7.00 to 8.00
C=CC(=O)Nc1cnn(C(C)C)c1-c1n[nH]c2c1CCC(c1c(F)c(OC)cc(OC)c1F)C2 (single isomer, unassigned) [Compound S17-P1, N-(5-(6-(2,6-difluoro-3,5-dimethoxyphenyl)-4,5,6,7-tetrahydro-1H-indazol-3-yl)-1-isopropyl-1H-pyrazol-4-yl)acrylamide]	7.00 to 8.00		7.00 to 8.00	< 7.00	
C=CC(=O)Nc1cnn(C(C)C)c1-c1n[nH]c2c1CCC(c1c(F)c(OC)cc(OC)c1F)C2 (single isomer, unassigned) [Compound S17-P2, N-(5-(6-(2,6-difluoro-3,5-dimethoxyphenyl)-4,5,6,7-tetrahydro-1H-indazol-3-yl)-1-isopropyl-1H-pyrazol-4-yl)acrylamide]	7.00 to 8.00			7.00 to 8.00	> 8.00
C=CC(=O)Nc1cnn(C)c1-c1n[nH]c2c1CCC(c1c(F)c(OC)cc(OC)c1F)=C2 [Compound S5-P1, N-(5-(6-(2,6-difluoro-3,5-dimethoxyphenyl)-4,5-dihydro-1H-indazol-3-yl)-1-methyl-1H-pyrazol-4-yl) acrylamide]	7.00 to 8.00	7.00 to 8.00	> 8.00		
C=CC(=O)Nc1cnn(C)c1-c1n[nH]c2c1CCC(c1cc(OC)cc(OC)c1F)=C2 [Compound S5-P2, N-(5-(6-(2-fluoro-3,5-dimethoxyphenyl)-4,5-dihydro-1H-indazol-3-yl)-1-methyl-1H-pyrazol-4-yl)acrylamide]	7.00 to 8.00	< 7.00	7.00 to 8.00		
C=CC(=O)Nc1cnn(C)c1-c1n[nH]c2c1CCC1(C2)OCc2c(OC)cc(OC)c(F)c21 (stereo not drawn) [Compound S9, N-(5-(7′-fluoro-4′,6′-dimethoxy-1,4,5,7-tetrahydro-3′H-spiro[indazole-6,1′-isobenzofuran]-3-yl)-1-methyl-1H-pyrazol-4-yl)acrylamide]	7.00 to 8.00	< 7.00	< 7.00		
C=CC(=O)Nc1cn[nH]c1-c1n[nH]c2c1CCC[C@@H](c1c(F)c(OC)cc(OC)c1F)C2 [Compound S11-P2, (R)—N-(5-(7-(2,6-difluoro-3,5-dimethoxyphenyl)-1,4,5,6,7,8-hexahydrocyclohepta[c]pyrazol-3-yl)-1H-pyrazol-4-yl)acrylamide]	> 8.00			> 8.00	> 8.00
C=CC(=O)Nc1cnn(CC)c1-c1n[nH]c2c1CC[C@@H](c1c(F)c(OC)cc(OC)c1F)C2 [Compound S14-P1, (R)—N-(5-(6-(2,6-difluoro-3,5-dimethoxyphenyl)-4,5,6,7-tetrahydro-1H-indazol-3-yl)-1-ethyl-1H-pyrazol-4-yl) acrylamide]	7.00 to 8.00	< 7.00	7.00 to 8.00		
C=CC(=O)Nc1cnn(CC)c1-c1n[nH]c2c1CC[C@H](c1c(F)c(OC)cc(OC)c1F)C2 [Compound S14-P2, (S)—N-(5-(6-(2,6-difluoro-3,5-dimethoxyphenyl)-4,5,6,7-tetrahydro-1H-indazol-3-yl)-1-ethyl-1H-pyrazol-4-yl) acrylamide]	> 8.00	7.00 to 8.00	> 8.00		
